Test results reported in patent publication US20080199858A1, “Method for Detecting Estrogen-Like Chemicals by Plant” (priority 2004, published 2008).

Target: T1, chimeric estrogen receptor containing hERαLBD and LexA DBD (Homo sapiens, UniProt P03372)
T1 construct: expressed in transfected cells; host or cells: transgenic Arabidopsis thaliana (Columbia), Agrobacterium C58-mediated transformation, CaMV 35S promoter
Assay type: in vivo
Conditions: T2 seeds on MS agar medium, grown for a week; FIG. 6
Protocol: Seeds of T3 were sown on a MS agar medium containing 17β-estradiol (WAKO Pure Chemical Inds.). The expression of GUS gene was examined by GUS activity staining method and GUS activity assay method by the use of a transformed plant grown for a week.
The induction of reporter gene expression by estrogen in transformed Arabidopsis thaliana was performed by the following procedures. […] After that the transformed Arabidopsis thaliana was sprouted and grown in a bright place at 22° C. for specified days for the continuous exposure to estrogen.
The Gus activity assay method was performed in the following way. […] Twenty plants treated with estrogen were frozen in liquid nitrogen and were crushed into powder by a homogenizer. Then, the extraction buffer (50 mM NaH2PO4, 10 mM EDTA, 0.1% Triton-X-100, 0.1% N-sodium lauroyl sarcosinate, 10 mM β-mercaptoethanol) was added and soluble protein was extracted. 4-methylumbelliferyl-β-D-glucronide (4-MUG) was used for a substrate of GUS activity assay. The extracted protein solution was added with extraction buffer containing final 1 mM 4-MUG and was reacted at 37° C. for 1 hr. […] Also, protein concentration in the solution was measured and measured values obtained by fluorescent spectroscopy were standardized by the correction depending on the total protein in the protein solution. […]

T1 sequence (P0A7C2 1-87, change not shown): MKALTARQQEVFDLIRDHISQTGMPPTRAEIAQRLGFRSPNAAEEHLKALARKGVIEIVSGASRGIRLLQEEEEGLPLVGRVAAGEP
T1 sequence (P03372 311-547, change not shown): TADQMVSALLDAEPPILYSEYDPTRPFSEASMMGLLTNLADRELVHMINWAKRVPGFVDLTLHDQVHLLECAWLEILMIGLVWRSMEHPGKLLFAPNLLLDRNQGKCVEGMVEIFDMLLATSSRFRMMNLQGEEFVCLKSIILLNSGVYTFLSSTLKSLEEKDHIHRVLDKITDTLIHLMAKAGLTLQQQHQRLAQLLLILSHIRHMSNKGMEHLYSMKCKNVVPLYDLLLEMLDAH
T1 sequence (Q15596 624-869, change not shown, further chain): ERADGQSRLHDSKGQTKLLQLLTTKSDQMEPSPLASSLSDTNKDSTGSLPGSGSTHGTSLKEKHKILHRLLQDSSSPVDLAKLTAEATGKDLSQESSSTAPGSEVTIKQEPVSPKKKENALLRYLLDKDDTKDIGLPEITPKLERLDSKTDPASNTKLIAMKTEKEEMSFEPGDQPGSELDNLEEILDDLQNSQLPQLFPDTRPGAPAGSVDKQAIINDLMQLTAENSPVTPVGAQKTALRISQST
T1 sequence (P06492 413-490, change not shown, further chain): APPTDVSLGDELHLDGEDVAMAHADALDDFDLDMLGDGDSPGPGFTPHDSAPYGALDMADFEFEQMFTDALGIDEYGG

For CC(C)(c1ccc(O)cc1)c1ccc(O)cc1 [BPA, bisphenol A], the “concentration from which expression of GUS gene responds / increases” value was > 100 nM and the “optimal concentration for the expression of GUS gene” value was 100 nM.
